Laboratory results as given in ChEMBL document CHEMBL4342436, “Artemisia: a promising plant for the treatment of cancer” (Bioorg Med Chem, 2020).
Converted amounts (≈) assume the structure as drawn.

Legend:
K562 [1] = assay: Antiproliferative activity against human K562 cells assessed as cell viability at 75 uM after 48 hrs relative to control; format: functional; conditions: K562, 48 h, read-out: Activity
K562 [2] = assay: Cytotoxicity against human K562 cells assessed as cell viability at 75 uM after by MTT assay relative to control; format: functional; conditions: read-out: Activity
BGC-823 [3] = assay: Cytotoxicity against human BGC823 cells; format: functional, cell-based
A549 [4] = assay: Cytotoxicity against human A549 cells; format: functional, cell-based
HCT-8 [5] = assay: Cytotoxicity against human HCT8 cells; format: functional, cell-based
HL-60 = assay: Cytotoxicity against human HL60 cells; format: functional, cell-based
K562 [6] = assay: Cytotoxicity against human K562 cells; format: functional, cell-based
[7] = Cytotoxicity against human 95-D cells by SRB assay; format: functional, cell-based
BGC-823 [8] = assay: Cytotoxicity against human BGC823 cells after 72 hrs by MTT assay; format: functional, cell-based; conditions: BGC-823, 72 h
HCT-8 [9] = assay: Cytotoxicity against human HCT8 cells after 72 hrs by MTT assay; format: functional, cell-based; conditions: HCT-8, 72 h
A549 [10] = assay: Cytotoxicity against human A549 cells after 72 hrs by MTT assay; format: functional, cell-based; conditions: A549, 72 h
IGROV-1 = assay: Growth inhibition of human IGROV1 cells assessed as reduction in cell viability at 15 uM by MTT assay relative to control; format: functional; conditions: read-out: GI
HCT-116 = assay: Growth inhibition of human HCT116 cells assessed as reduction in cell viability at 15 uM by MTT assay relative to control; format: functional; conditions: read-out: GI
OVCAR-3 = assay: Growth inhibition of human OVCAR3 cells assessed as reduction in cell viability at 15 uM by MTT assay relative to control; format: functional; conditions: read-out: GI
SW-620 = assay: Antitumour activity against human SW620 cells xenografted in nude mouse assessed as inhibition of tumour growth at 50 mg/kg, ip for 17 days relative to control; format: functional; conditions: SW-620, ip, 408 h, read-out: TGI
NCI-H23 = assay: Antitumour activity against human NCI-H23 cells xenografted in nude mouse assessed as inhibition of tumour growth at 50 mg/kg, ip for 17 days relative to control; format: functional; conditions: 408 h, read-out: TGI
[11] = Cytotoxicity against mouse Meth-A cells by MTT assay; format: functional; conditions: read-out: ED50 (the source's name)
SGC-7901 = assay: Cytotoxicity against human SGC7901 cells by MTT assay; format: functional, cell-based
SMMC-7721 = assay: Cytotoxicity against human SMMC7721 cells by MTT assay; format: functional, cell-based
HepG2 = assay: Cytotoxicity against human HepG2 cells assessed as reduction in cell viability by CCK8 assay; format: functional, cell-based
A549 [12] = assay: Cytotoxicity against human A549 cells assessed as reduction in cell viability by CCK8 assay; format: functional, cell-based

In the case of C[C@@H]1C(=O)O[C@H]2C1CC[C@@]1(C)[C@H](O)CC[C@@]13C[C@]2(O)OO3 (stereo partly specified), the viability at 75 µM (K562 [1]) is reported as 40% and the viability at 75 µM (K562 [2]) is reported as 40%.
Compound CC(=O)OCC1=C2CC[C@@]3(C)[C@H](O)CC(OC(C)=O)=C(C)[C@@H]3[C@H]2OC1=O has an IC50 (BGC-823 [3]) of 2.71 µM, an IC50 (A549 [4]) of 5.49 µM and an IC50 (HCT-8 [5]) of 3.76 µM.
Compound C=C1CCC(O)C2(C)CCC3C(C)C(=O)OC3C12O (stereo unspecified) has an IC50 (HL-60) of 71.1 µM, an IC50 (K562 [6]) of 22.5 µM and an IC50 [7] of 11.3 µM.
Compound CC#CC#CC1=C(CCCCO)C(O)C(O)C1=O (stereo unspecified) has an IC50 (BGC-823 [8]) of 1.1 µM, an IC50 (HCT-8 [9]) of 4.6 µM and an IC50 (A549 [10]) of 7.5 µM.
Work on COc1cc2oc(-c3ccc(O)c(O)c3)cc(=O)c2c(O)c1OC [CIRSILIOL] yielded an inhibition of growth at 15 µM (IGROV-1) of 48.8%, an inhibition of growth at 15 µM (HCT-116) of 40.9% and an inhibition of growth at 15 µM (OVCAR-3) of 53.7%.
C=C1C(=O)O[C@@H]2[C@@H]3[C@@]4(C=C[C@@]3(C)[C@@]3(C4)C(=O)O[C@@H]4[C@H]5C(C)=CC(=O)C5=C(C)C[C@H](OC(=O)/C(C)=C\C)[C@H]43)[C@](C)(O)CC[C@@H]12 gave an inhibition in vivo at 50 mg/kg (SW-620) of 39.5% and an inhibition in vivo at 50 mg/kg (NCI-H23) of 30.3%.
Work on CC(C)C(=O)CC[C@@H](C)[C@H]1CC[C@@]2(C)[C@@H]3CC[C@H]4C(C)(C)[C@@H](O)CC[C@@]45C[C@@]35CC[C@]12C yielded an EC50 [11] of 4 to 10 µg/mL (≈ 9.03 to 22.6 µM).
Compound CC1=CC2O[C@@H]3C[C@H]4OC(=O)/C=C\CC[C@]56OCCC7(OC7C(=O)OC[C@@]2(CC1)[C@]4(C)[C@]31CO1)[C@H]5OC(=O)[C@H]6O (stereo partly specified) has an IC50 (SGC-7901) of 0.26 µg/mL (≈ 0.465 µM) and an IC50 (SMMC-7721) of 10.54 µg/mL (≈ 18.9 µM).
With C=C1C(=O)O[C@@H]2[C@@H]3C4(C=C[C@@]3(C)[C@]3(C4)C(=O)O[C@@H]4[C@H]5C(C)=CC(=O)C5=C(C)C[C@H](OC(C)=O)[C@H]43)[C@@](C)(OC(C)=O)CC[C@@H]12 the IC50 (HepG2) was 0.6 to 5.4 µM and the IC50 (A549 [12]) was 0.6 to 5.4 µM.
